Laboratory results as given in PMC2874658 (Bioorganic & medicinal chemistry letters, 2010).

Tests used:
[1] = molecular target: PKM2 (Homo sapiens, UniProt P14618); experiment: steady-state kinetics of PEP and ADP in the PK-LDH coupled assay; format: biochemical
[2] = molecular target: hPK, M2 (PKM2) (Homo sapiens, UniProt P14618); experiment: luminescent pyruvate kinase-luciferase coupled assay; format: biochemical; details: for activation at 57 µM: read-out: hPK, M2 Max. Res, % activation at 57 μM of compound, luciferase coupled assay; for potency (in words): PKM2 activation, SAR statement
Chain of hPK, M2 (PKM2) (P14618 whole entry): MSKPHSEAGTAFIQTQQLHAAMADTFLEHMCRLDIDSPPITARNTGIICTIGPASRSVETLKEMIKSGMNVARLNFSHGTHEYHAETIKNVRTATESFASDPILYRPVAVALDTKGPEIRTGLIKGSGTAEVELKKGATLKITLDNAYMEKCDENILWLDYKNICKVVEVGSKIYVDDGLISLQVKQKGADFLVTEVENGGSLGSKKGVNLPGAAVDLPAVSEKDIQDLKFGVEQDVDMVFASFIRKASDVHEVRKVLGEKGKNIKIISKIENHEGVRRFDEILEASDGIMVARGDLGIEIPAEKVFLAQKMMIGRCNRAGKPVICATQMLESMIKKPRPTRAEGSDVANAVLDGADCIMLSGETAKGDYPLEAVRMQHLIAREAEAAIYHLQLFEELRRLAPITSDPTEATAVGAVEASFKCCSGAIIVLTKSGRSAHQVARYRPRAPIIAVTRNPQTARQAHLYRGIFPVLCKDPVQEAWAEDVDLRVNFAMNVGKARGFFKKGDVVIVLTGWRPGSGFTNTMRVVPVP

Chain of PKM2 (P14618 whole entry): as above

## Cc1cc2c(s1)c1cnn(Cc3ccccc3F)c(=O)c1n2C [compound 1]
[1]; in the presence of activator versus absence (KM ~ 1.5 mM)
  decrease of KM for PEP: 10 fold
[1]; with or without activator
  Vmax: 255 pmols/min

## Cn1c2ccsc2c2ncn(Cc3ccccc3F)c(=O)c21 [compound 23]
[2]
  activation at 57 µM: < 80%

## Cc1cc2[nH]c3c(=O)n(Cc4ccccc4F)ncc3c2s1 [compound 19]
[2]
  activation at 57 µM: 33%

## Cc1cc2c(s1)c1cnn(-c3ccccc3)c(=O)c1n2C [compound 24]
[2]
  potency (in words): marked loss of potency

## CCCCCn1ncc2c3sc(C)cc3n(C)c2c1=O [compound 25]
[2]
  potency (in words): marked loss of potency
